Assay results from ChEMBL document CHEMBL1201862, “PubChem BioAssay data set” (2004).
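Cells were grown in 96-well plates and exposed to each compound for 48 hours at five concentrations; endpoints were interpolated linearly between bracketing concentrations, or set to the highest concentration if not reached. GI50 is the concentration that inhibits growth by half.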 Active and inactive are the calls of the source. Rule as the data show it: active = GI50 up to about 1.1 µM and inactive = higher.

Columns and labels:
Experiment in all cases: growth of human tumour cells (NCI), 48 h
SW-620 = test system: SW-620
SF-295 = test system: SF-295
SK-OV-3 = test system: SK-OV-3
NCI-H226 = test system: NCI-H226
COLO 205 = test system: COLO 205
HOP-62 = test system: HOP-62
CAKI-1 = test system: CAKI-1
EKVX = test system: EKVX
U-251 = test system: U-251
SF-539 = test system: SF-539
HL-60 = test system: HL-60
OVCAR-8 = test system: OVCAR-8
KM12 = test system: KM12
LOX IMVI = test system: LOX IMVI
HCC 2998 = test system: HCC 2998
Hs-578T = test system: Hs-578T
PC-3 = test system: PC-3
DU-145 = test system: DU-145

Measured: GI50

CC1=CC(=O)NP(=O)(Oc2ccc(Cl)cc2)N1 (centres undefined)
inactive: SW-620 > 100 µM | SF-295 > 100 µM | SK-OV-3 > 100 µM | NCI-H226 > 100 µM | COLO 205 > 100 µM | HOP-62 > 100 µM | CAKI-1 > 100 µM | EKVX > 100 µM | U-251 > 100 µM | SF-539 > 100 µM | HL-60 55.6 µM | OVCAR-8 > 100 µM | KM12 > 100 µM | LOX IMVI > 100 µM

Cc1ccc(S(=O)(=O)N[C@H](C(=O)O)c2ccccc2)cc1
inactive: SW-620 > 100 µM | SF-295 > 100 µM | SK-OV-3 > 100 µM | NCI-H226 > 100 µM | COLO 205 > 100 µM | CAKI-1 > 100 µM | EKVX > 100 µM | U-251 > 100 µM | SF-539 > 100 µM | HL-60 > 100 µM | HCC 2998 > 100 µM | OVCAR-8 > 100 µM | KM12 > 100 µM | LOX IMVI > 100 µM

C/C(=N\N(c1ccccc1)c1ccccc1)c1c(O)cc(C)oc1=O
inactive: SW-620 > 100 µM | SF-295 > 100 µM | SK-OV-3 > 100 µM | NCI-H226 > 100 µM | HOP-62 > 100 µM | CAKI-1 90.2 µM | EKVX > 100 µM | U-251 22.4 µM | SF-539 67.8 µM | HL-60 > 10 µM | HCC 2998 > 100 µM | OVCAR-8 > 100 µM | KM12 > 100 µM | LOX IMVI > 100 µM

CC1=C(/C(C)=N/NS(=O)(=O)c2ccc(C)cc2)Sc2ccccc2N1
inactive: SW-620 > 100 µM | SF-295 50.5 µM | SK-OV-3 > 100 µM | NCI-H226 > 100 µM | COLO 205 48.1 µM | HOP-62 > 100 µM | CAKI-1 > 100 µM | EKVX 68.7 µM | U-251 47.9 µM | SF-539 > 100 µM | HL-60 39.4 µM | HCC 2998 > 100 µM | OVCAR-8 > 100 µM | KM12 > 100 µM | LOX IMVI 70.8 µM

O=[N+]([O-])c1cccc(C2SCc3nc4ccccc4n32)c1 (centres undefined)
inactive: SW-620 > 100 µM | SF-295 73.5 µM | SK-OV-3 > 100 µM | NCI-H226 39.6 µM | COLO 205 > 100 µM | HOP-62 > 100 µM | CAKI-1 21.8 µM | EKVX 66.2 µM | U-251 > 100 µM | SF-539 > 100 µM | HL-60 54.3 µM | OVCAR-8 > 100 µM | KM12 > 100 µM | LOX IMVI 88.3 µM

CC1=C(C(=O)NCc2ccccc2)C(c2ccc([N+](=O)[O-])cc2)C(C(=O)NCc2ccccc2)=C(C)N1
inactive: SW-620 63.7 µM | SF-295 37.1 µM | NCI-H226 31.8 µM | COLO 205 29.2 µM | HOP-62 > 100 µM | CAKI-1 26.7 µM | EKVX > 100 µM | U-251 40.3 µM | SF-539 66.4 µM | HL-60 21.2 µM | HCC 2998 39.8 µM | OVCAR-8 39.8 µM | KM12 34.7 µM | LOX IMVI 18.2 µM

CCOC(=O)CCC(NC(=O)c1ccc(NC(OC)c2nc3cc(C(F)(F)F)ccc3nc2-c2ccccc2)cc1)C(=O)OCC (centres undefined)
inactive: SW-620 7.62 µM | SF-295 16.2 µM | SK-OV-3 18.1 µM | NCI-H226 18.6 µM | COLO 205 16.5 µM | HOP-62 17 µM | CAKI-1 17.1 µM | EKVX 18 µM | U-251 15.6 µM | SF-539 13.2 µM | HL-60 2.21 µM | HCC 2998 15.8 µM | OVCAR-8 10.3 µM | KM12 6.24 µM | LOX IMVI 10.4 µM

O=C1C(c2ccccc2)=C(c2ccccc2)[C@H](c2ccccc2)[C@]1(Cc1nnn(-c2ccc([N+](=O)[O-])cc2)c1N1CCOCC1)c1ccccc1
inactive: SW-620 > 37.5 µM | SF-295 35.6 µM | SK-OV-3 > 37.5 µM | COLO 205 > 37.5 µM | HOP-62 > 37.5 µM | CAKI-1 > 37.5 µM | EKVX > 37.5 µM | U-251 > 37.5 µM | SF-539 > 37.5 µM | HL-60 > 37.5 µM | HCC 2998 > 37.5 µM | OVCAR-8 > 37.5 µM | LOX IMVI 24.5 µM

N#CC1C2CCC3(CC2CCN1C(=O)c1ccccc1)OCCO3 (centres undefined)
inactive: SW-620 > 100 µM | SF-295 > 100 µM | SK-OV-3 > 100 µM | COLO 205 > 100 µM | HOP-62 > 100 µM | EKVX > 100 µM | U-251 > 100 µM | SF-539 > 100 µM | HL-60 > 100 µM | HCC 2998 > 100 µM | OVCAR-8 > 100 µM | KM12 > 100 µM | LOX IMVI > 100 µM

Cc1cc(C(=O)NCCN(C)C)c2nc3ccccc3nc2c1
inactive: SW-620 1.97 µM | SF-295 4.55 µM | SK-OV-3 11.7 µM | NCI-H226 3.44 µM | COLO 205 3.08 µM | HOP-62 2.17 µM | EKVX 8.26 µM | U-251 5.82 µM | SF-539 4.31 µM | HL-60 3.41 µM | HCC 2998 6.38 µM | OVCAR-8 4.81 µM | KM12 3.91 µM | LOX IMVI 2.22 µM

N#CC(NNC(=O)Cc1ccccc1)c1ccc([N+](=O)[O-])cc1 (centres undefined)
inactive: SW-620 > 100 µM | SF-295 > 100 µM | SK-OV-3 > 100 µM | NCI-H226 > 100 µM | COLO 205 > 100 µM | HOP-62 > 100 µM | U-251 > 100 µM | SF-539 > 100 µM | HL-60 > 100 µM | OVCAR-8 > 100 µM | KM12 > 100 µM | LOX IMVI > 100 µM

CCCCCCCCCCCC(=O)OCC1OC(n2cc(F)c(=O)[nH]c2=O)C(NC(=O)OCc2ccccc2)C(O)C1O (centres undefined)
inactive: SW-620 20.6 µM | SF-295 27.9 µM | SK-OV-3 63.7 µM | COLO 205 21.2 µM | HOP-62 44.9 µM | CAKI-1 32.6 µM | EKVX 30.5 µM | U-251 19 µM | SF-539 22 µM | HL-60 20.6 µM | HCC 2998 18.4 µM | OVCAR-8 21.2 µM | KM12 21.3 µM | LOX IMVI 18.4 µM

Cc1cccc(C(=O)O)c1C(=O)c1cccc2ccccc12
inactive: SW-620 > 100 µM | SF-295 > 100 µM | SK-OV-3 > 100 µM | NCI-H226 > 100 µM | COLO 205 > 100 µM | HOP-62 > 100 µM | CAKI-1 > 100 µM | EKVX > 100 µM | U-251 > 100 µM | HCC 2998 > 100 µM | OVCAR-8 > 100 µM | KM12 > 100 µM | LOX IMVI > 100 µM

CC(C)C(/C=C/c1ccccc1)=N\NC(=O)N/N=C(/C=C/c1ccccc1)C(C)C
inactive: SW-620 37 µM | SF-295 39.9 µM | SK-OV-3 40.2 µM | NCI-H226 18.2 µM | COLO 205 18.4 µM | HOP-62 40.6 µM | CAKI-1 6.98 µM | EKVX 8.36 µM | U-251 32.3 µM | SF-539 31.1 µM | HL-60 15.2 µM | HCC 2998 16 µM | OVCAR-8 28.8 µM | KM12 36.3 µM | LOX IMVI 32.4 µM

CCOC(=O)C1=C(OC(OCC)C(CC)[Se]c2ccccc2)CCC1 (centres undefined)
inactive: SF-295 16.9 µM | SK-OV-3 92 µM | NCI-H226 18.3 µM | COLO 205 34.3 µM | HOP-62 78.5 µM | CAKI-1 44.2 µM | EKVX 29.2 µM | U-251 11.4 µM | SF-539 19.8 µM | HL-60 12.4 µM | HCC 2998 15.2 µM | OVCAR-8 33.2 µM | KM12 39.4 µM | LOX IMVI 7.31 µM

O=C(CN(Cc1ccccc1)Cc1ccccc1)N1CCc2c([nH]c3ccccc23)C1c1cccnc1 (centres undefined)
inactive: SW-620 5.65 µM | SF-295 6.64 µM | SK-OV-3 80.9 µM | HOP-62 39 µM | CAKI-1 4.85 µM | EKVX 7.71 µM | U-251 6.37 µM | SF-539 12.2 µM | HL-60 1.71 µM | HCC 2998 13.2 µM | OVCAR-8 6.1 µM | KM12 4.14 µM | LOX IMVI 7.73 µM

CC1CN=C(N(C(=O)Nc2ccc(Cl)cc2)c2cccc(Cl)c2)S1 (centres undefined)
inactive: SW-620 41.9 µM | SF-295 20.1 µM | Hs-578T 50.1 µM | PC-3 25.2 µM | SK-OV-3 > 100 µM | COLO 205 18.5 µM | HOP-62 > 100 µM | CAKI-1 12.9 µM | EKVX 31.2 µM | U-251 70.3 µM | SF-539 33.7 µM | HL-60 48.2 µM | DU-145 46.8 µM | HCC 2998 20.9 µM | OVCAR-8 36.9 µM | KM12 24.9 µM | LOX IMVI 21.6 µM

Cc1cccc(CC(C)(C)C)c1NC(=O)C(=O)C(C(=O)c1ccc2ccccc2c1)C1OC(=O)c2ccccc21 (centres undefined)
inactive: SW-620 6.78 µM | SF-295 4.55 µM | SK-OV-3 26.5 µM | NCI-H226 2.4 µM | COLO 205 15.4 µM | HOP-62 15.4 µM | CAKI-1 19.2 µM | EKVX 20.7 µM | U-251 4.79 µM | SF-539 2.95 µM | HCC 2998 12.1 µM | OVCAR-8 6.58 µM | KM12 14.5 µM | LOX IMVI 11.5 µM

COc1cc2c(cc1OC)[C@]1(O)C(=O)c3ccc4c(c3O[C@@H]1CO2)C[C@H](C(C)(C)O)O4
inactive: SW-620 > 100 µM | SK-OV-3 > 100 µM | COLO 205 > 100 µM | HOP-62 > 100 µM | EKVX 10.3 µM | U-251 > 100 µM | SF-539 > 100 µM | HL-60 24.9 µM | HCC 2998 > 100 µM | OVCAR-8 85.3 µM | KM12 > 100 µM | LOX IMVI 11.1 µM
